# Experimental data published in patent US20200390767A1, “Formulations of 4-(7-Hydroxy-2-isopropyl-4-oxo-4H-quinazolin-3-yl)-benzonitrile” (NOVARTIS AG, priority 2019, published 2020).
# Legend:
# TRPV1 receptor = TRPV1 receptor (Homo sapiens, UniProt Q8NER1); assay: TRPV1 receptor activity; type: cell-based
# Experimental: “TRPV1 receptor” refers to the Transient Receptor Potential Vanilloid 1 that has been characterized through molecular cloning and pharmacology. See e.g., Caterina M J, et al., Nature 1997; 389:816-824. TRPV1 receptor activity is measured as described in WO2005/120510, hereby incorporated by reference in its entirety.
# [1] = Pharmacokinetic study of exploratory formulations, single bilateral topical ocular dosing; type: in vivo; conditions: NZW rabbits
# Experimental: A pharmacokinetics study was conducted to determine the ocular uptake of compound I following single bilateral topical ocular dosing of male NZW rabbits with the four exploratory formulations provided in Table 2: FID 121522, FID 121511, FID 121512, FID 121513.
# PRK surgery patients = assay: PRK clinical study, adverse events; type: in vivo, human
# Source text: Safety assessments consisted of collecting all AEs, SAES, with their severity and relationship to study drug. Only signs and symptoms greater than the listed ranges of either severity or duration were reported as AEs.
# Adverse events and serious adverse events included an assessment of both systemic and ocular assessments. Systemic safety assessments included regular assessments of height and weight, vital signs, reporting medication errors including misuse/abuse, pregnancy reporting and early phase safety monitoring. The misuse/abuse, pregnancy reporting and early phase safety monitoring were not assessed for the study. Ocular safety assessments included the following: • Best-corrected visual acuity (BCVA) and uncorrected visual acuity (UCVA): Was measured at each visit using an ETDRS visual acuity chart at 4 meters (13 feet) or 1 meter (for patients that cannot read the 4 meter chart). The BCVA scoring was done based on the number of correctly read letters plus 30. If visual acuity was so poor that the patient could not read any of the largest letters at 1 meter, count fingers and hand movement vision and light perception was tested. • Intraocular Pressure (TOP): IOP measurements were conducted with applanation tonometry or Tonopen. • Dilated fundus exam: The dilated fundus examination included ophthalmoscopic assessments of the vitreous, retina/macula/choroid, and optic nerve. Evaluations for retinal tear/detachment, retinal hemorrhage, vitreous hemorrhage density, vitreous haze grading and abnormal findings were done and scored according to grading criteria. • Ocular hyperemia: Conjunctival redness of the bulbar conjunctiva in each eye at the slit lamp according to the McMonnies redness scale was graded. […] By adjusting the calibrated slit beam width and height, the maximum horizontal (wound width) and vertical dimensions (wound height) of the surgical epithelial wound was estimated. The evaluation was performed until wound closure and report of wound size as 0 horizontal and 0 vertical dimensions. • Slit-lamp biomicroscopy: Ocular signs (eyelids/conjunctiva, cornea, lens, and iris/anterior chamber) was assessed in both eyes by slit lamp biomicroscopy according to the grading criteria. • Blink rate: A blink was defined as a bilateral paroxysmal closure of the eyelids (duration <1 second) in the absence of a provoking external stimulus. Each blink assessment lasted for 2 min (or as close to 2 minutes as possible with minimum time 1 minute) and the obtained blink rate was averaged to calculate blink rate in blinks/min. • Tear production (Schirmer's test without anesthesia): The test was performed without anesthetic in both eyes simultaneously. Tear secretion was measured in millimeters of the length of strip wetted by tears. […] The strip was wetted with 1 drop of sterile saline and flicked to remove excess saline. The patient blinked several times to ensure dispersion of the dye throughout the tear film prior to grading on a scale of 0-3 (0=Normal, No staining; 1=Mild, Superficial stippling micropunctate staining; 2=Moderate, Macropunctate staining with some coalescent areas and 3=Severe, Numerous coalescent macropunctate areas and/or patches) for each of 5 zones (central plus 4 quadrants).
# A total of 18 AEs were reported in 10 patients (25% of the 40 enrolled patients) of which twelve occurred after treatment with compound I, five after treatment with Vehicle and one occurred in one patient prior to dosing of the study drug. All AEs were either mild or moderate in severity.
# [2] = system: postoperative ocular pain in patients undergoing photorefractive keratectomy (PRK) surgery; assay: PRK clinical study, VAS pain severity; type: in vivo, human
# Experimental: The study was a proof of concept, double-masked, randomized, vehicle-controlled study of compound I administered as eye drops in addition to standard of care treatment in patients after PRK surgery. PRK surgery was performed as an outpatient procedure under topical anesthesia with removal of the corneal epithelium to expose the stroma for the laser ablation. Compound I dosing was as single eye drop of 2.5% (0.925 mg/drop), administered four times daily (every six hours) in one eye from immediate post-op (time 0) to last dose at 72 hours.
# The study consisted of 2 treatment periods using a crossover design. Patients underwent PRK surgery on 2 separate occasions (periods), one eye at a time. Patients were randomized to receive either compound 1 or vehicle following procedure 1 and the alternate following procedure 2.
# Patient subjective experience of pain was recorded using VAS, a numeric assessment of pain between 0 and 100, with 0 representing no pain, and 100 representing worst imaginable pain. […] Since it was important clinically to both decrease the maximum pain as well as the overall pain that the patient experiences during the immediate postoperative period, the two periods of 6 hours and up to 12 hours postoperatively, were evaluated as primary endpoints. All evaluable VAS data was collected using an ePRO, which was an electronic device (cell phone with software application), on which patients marked their pain levels at the appropriate time points.
# Rescue oral analgesics: It is not ethical to refuse pain control medication to patients postoperatively as part of a clinical trial. […] Because the use of oral rescue medication may be a potential confounder of the pain VAS evaluation, three approaches were used when analyzing pain VAS scores to account for the influence of pain meds (assuming 4 hours of rescue medication effect): (1) any recorded VAS score within 4 hours after use of rescue medication was considered missing; (2) all the recorded VAS scores was used; and (3) any recorded VAS scores within 4 hours after rescue medication use was imputed by the record taken prior to the rescue medication.
# The mean VAS pain severity scores at 6 hours and 0-12 hours post-operatively are presented in Table 22 and Table 23, respectively, and shown in FIG. 3. The primary analysis was performed using the Primary PD analysis set.
# Chain of TRPV1 receptor (Q8NER1 whole entry): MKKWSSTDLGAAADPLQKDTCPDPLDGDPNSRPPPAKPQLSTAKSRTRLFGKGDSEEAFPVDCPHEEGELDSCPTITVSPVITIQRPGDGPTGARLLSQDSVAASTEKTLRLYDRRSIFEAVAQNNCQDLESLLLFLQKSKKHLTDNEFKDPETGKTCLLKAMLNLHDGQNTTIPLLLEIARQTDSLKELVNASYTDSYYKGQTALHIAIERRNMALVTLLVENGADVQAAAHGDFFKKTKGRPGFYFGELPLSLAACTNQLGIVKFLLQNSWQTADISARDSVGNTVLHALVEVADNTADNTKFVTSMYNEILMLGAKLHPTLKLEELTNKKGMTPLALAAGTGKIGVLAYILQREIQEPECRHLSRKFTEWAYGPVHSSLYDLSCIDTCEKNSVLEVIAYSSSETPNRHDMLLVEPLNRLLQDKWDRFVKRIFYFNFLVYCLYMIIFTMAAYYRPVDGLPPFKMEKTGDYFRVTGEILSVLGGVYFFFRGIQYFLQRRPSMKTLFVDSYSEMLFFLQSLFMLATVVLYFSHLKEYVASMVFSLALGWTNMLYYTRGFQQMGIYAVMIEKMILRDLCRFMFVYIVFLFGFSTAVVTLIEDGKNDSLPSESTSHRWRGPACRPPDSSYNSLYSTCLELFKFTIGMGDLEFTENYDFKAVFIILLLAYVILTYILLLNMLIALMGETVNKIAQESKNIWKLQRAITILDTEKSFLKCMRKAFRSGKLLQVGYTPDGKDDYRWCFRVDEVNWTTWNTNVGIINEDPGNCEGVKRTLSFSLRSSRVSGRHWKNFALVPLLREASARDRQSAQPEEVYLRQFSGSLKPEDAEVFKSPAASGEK
smiles,measurement,setting,value
"CC(C)c1nc2cc(O)ccc2c(=O)n1-c1ccc(C#N)cc1 [Compound I, 4-(7-hydroxy-2-isopropyl-4-oxo-4H-quinazolin-3-yl)-benzonitrile]",IC50,TRPV1 receptor,0.03 µM
same,exposure in cornea relative to aqueous humor and iris-ciliary body,[1],approximately 10 times
same,Kp,"[1]; male, rabbit, cornea / plasma, topical, read-out: exposure in cornea relative to plasma",~500
same,"deaths, SAEs, discontinuations due to AEs",PRK surgery patients; 40 enrolled patients,no deaths or SAEs
same,eyes (treatment periods) with AEs of moderate severity,PRK surgery patients; five AEs in four patients,four
same,patients who experienced an AE only during this treatment,"PRK surgery patients; human, in vivo",Five
same,relation of ocular AEs to study drug,"PRK surgery patients; human, in vivo",None of the AEs were suspected to be related
same,patients who developed AEs after treatment,PRK surgery patients; of 40 patients,Eight
same,number of AEs after treatment,PRK surgery patients; of a total of 18 AEs in 10 patients,twelve
same,eyes with ocular AEs (mild severity),PRK surgery patients; six ocular AEs in four patients,three
same,eyes (treatment periods) with non-ocular AEs,PRK surgery patients; twelve non-ocular AEs in seven patients,six
same,"VAS pain severity score, % Diff",[2]; 0-12 hours post-operatively,−22%
same,"VAS pain severity score, Diff (compound I-Vehicle)",[2]; 0-12 hours post-operatively,−8.56
same,"VAS pain severity score, model estimated mean","[2]; 0-12 hours post-operatively, 2.5% four times daily, Primary PD analysis set",30.90
same,VAS pain severity versus Vehicle during the first 18 hours after surgery,"[2]; 6 out of the 7 time points, p-value threshold 0.10",statistically significantly lower VAS pain severity scores
same,"VAS pain severity score, % Diff",[2]; 6 hours post-operatively,−25%
same,"VAS pain severity score, Diff (compound I-Vehicle)",[2]; 6 hours post-operatively,−11.1
same,"VAS pain severity score, model estimated mean (SE)","[2]; 6 hours post-operatively, 2.5% four times daily, Primary PD analysis set",34.63 (4.05)
same,mean change in VAS score after instillation of eye drop,[2]; 6.5 hours versus 6 hours post-operative,−3.1
same,mean change in VAS score after instillation of eye drop,[2]; 18.5 hours versus 18 hours post-operative,2.8
same,mean change in VAS score after instillation of eye drop,[2]; 24.5 hours versus 24 hours post-operative,1.3
